In ChEMBL document CHEMBL2331155, “Polycyclic hybrid isoprenoids from a reed rhizosphere soil derived Streptomyces sp. CHQ-64” (J Nat Prod, 2013):
The source made the active and inactive calls. The rule behind the calls is not given here.

Columns and labels:
Homo sapiens = species: Homo sapiens; assay: Inhibition of NF-kappaB (unknown origin) expressed in LPS-stimulated Raw 264.7 cells pretreated for 2 hrs measured after 4 hrs of LPS-challenge by luciferase reporter assay; format: cell-based
[1] = biological target: Protein kinase C alpha type (Homo sapiens) (UniProt P17252); assay: Binding affinity to PKC alpha (unknown origin)
A2780 = assay: Cytotoxicity against human A2780 cells by MTT assay; format: functional, cell-based
[2] = biological target: T1, DNA topoisomerase 1 (Homo sapiens) (UniProt P11387); assay: Binding affinity to topoisomerase 1 (unknown origin)
T1 sequence (whole entry): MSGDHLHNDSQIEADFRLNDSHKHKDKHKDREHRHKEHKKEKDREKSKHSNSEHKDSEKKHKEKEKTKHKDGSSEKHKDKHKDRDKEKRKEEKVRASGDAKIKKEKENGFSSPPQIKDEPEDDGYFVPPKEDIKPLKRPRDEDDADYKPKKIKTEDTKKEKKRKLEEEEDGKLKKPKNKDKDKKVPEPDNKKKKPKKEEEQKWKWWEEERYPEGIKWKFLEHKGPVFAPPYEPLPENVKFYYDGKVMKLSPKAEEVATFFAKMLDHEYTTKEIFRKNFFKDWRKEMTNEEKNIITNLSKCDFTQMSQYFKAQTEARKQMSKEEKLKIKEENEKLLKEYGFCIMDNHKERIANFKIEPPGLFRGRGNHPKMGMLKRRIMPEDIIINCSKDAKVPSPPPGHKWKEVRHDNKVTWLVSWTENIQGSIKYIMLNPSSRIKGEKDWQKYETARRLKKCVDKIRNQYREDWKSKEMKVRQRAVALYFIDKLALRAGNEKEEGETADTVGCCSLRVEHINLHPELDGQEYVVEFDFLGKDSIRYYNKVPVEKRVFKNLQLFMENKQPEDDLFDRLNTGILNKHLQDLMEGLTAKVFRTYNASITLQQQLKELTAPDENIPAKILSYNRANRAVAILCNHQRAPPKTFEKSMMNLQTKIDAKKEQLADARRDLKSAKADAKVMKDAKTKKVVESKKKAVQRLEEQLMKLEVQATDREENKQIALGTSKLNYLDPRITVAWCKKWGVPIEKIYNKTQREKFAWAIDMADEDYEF

BGC-823 = assay: Cytotoxicity against human BGC823 cells by MTT assay; format: functional, cell-based
A549 = assay: Cytotoxicity against human A549 cells by MTT assay; format: functional, cell-based
Bel-7402 = assay: Cytotoxicity against human Bel7402 cells by MTT assay; format: functional, cell-based
HCT-8 = assay: Cytotoxicity against human HCT8 cells by MTT assay; format: functional, cell-based

Row | SMILES | inhibition (Homo sapiens) | Activity [1] | IC50 (A2780) [µM] | Activity [2] | IC50 (BGC-823) [µM] | IC50 (A549) [µM] | IC50 (Bel-7402) [µM] | IC50 (HCT-8) [µM]
1 | CC(C)[C@H]1C(=O)N[C@@H](C[C@]23C[C@H]4C(=C[C@H]2N(C=O)c2ccccc23)CC[C@H]2C(C)(C)CCC[C@]42C)C(=O)N1C (mixture of isomers) [INDOTERTINE B] | inactive | inactive | > 10 | inactive | > 10 | 4.88 | > 10 | 6.96
2 | C=C1CC[C@H]2C(C)(C)CCC[C@]2(C)[C@H]1C[C@@]12C[C@H]3C(=O)N4CCC[C@H]4C(=O)N3[C@@H]1Nc1ccccc12 [DRIMENTINE C] | inactive | inactive | > 10 | inactive | > 10 | > 10 | > 10 | > 10
3 | C=C1CC[C@H]2C(C)(C)CCC[C@]2(C)[C@H]1C[C@@]12C[C@H]3C(=O)N(C)[C@@H](C(C)C)C(=O)N3[C@@H]1N(C=O)c1ccccc12 [DRIMENTINE H] | inactive | inactive | > 10 | inactive | > 10 | > 10 | > 10 | > 10
4 | CC(=O)O[C@H]1C(=O)[C@@]2(C)[C@H]([C@H](OC(=O)c3ccccc3)[C@]3(O)C[C@H](OC(=O)[C@H](O)[C@@H](NC(=O)c4ccccc4)c4ccccc4)C(C)=C1C3(C)C)[C@]1(OC(C)=O)CO[C@@H]1C[C@@H]2O [PACLITAXEL] | – | – | < 0.001 | – | < 0.001 | – | 0.006 | –
